Experimental data taken from US20190192521A1, “Methods of Treating Arid1A-Mutated Cancers With HDAC6 Inhibitors and EZH2 Inhibitors” (The Wistar Institute of Anatomy and Biology, priority 2016, published 2019).

Assays:
[1] = test system: p53 target genes (BAX, PUMA, NOXA, CDKN1A) in ARID1A-mutated TOV21G cells; experiment: RNA-seq of p53 target genes; assay type: cell-based, human; settings: 1.25 μM
From the text: RNA was extracted and utilized for next generation sequencing (RNA-seq). Expression of p53 target genes known to regulate apoptosis such as BAX, PUMA and NOXA, and known to regulate cell cycle arrest such as CDKN1A were not altered by HDAC6 inhibition in RNA-seq analysis.

[2] = test system: ovarian clear cell carcinoma cell lines with known ARID1A mutational status; experiment: colony formation assay, panel of ovarian clear cell carcinoma cell lines with or without ARID1A mutation; assay type: cell-based, human; settings: 12 days
Protocol: After 12 days culture, integrated density of colony formed by the indicated cells was quantified using NIH Image J software, and values were normalized to vehicle control. Data represent triplicates from independent experiments. Error bars represent S.E.M. The p-value was calculated via two-tailed t-test.
Indicated ovarian clear cell carcinoma cell lines with known ARID1A mutational status were treated with the indicated concentration of HDAC6 inhibitor CAY10603 or vehicle control in a colony formation assay. After 12 days culture, integrated density of colony formed by the indicated cells was quantified using NIH Image J software, and values were normalized to vehicle control. Data represent triplicates from independent experiments. Error bars represent S.E.M.
Colony formation assays were performed as follows. Cell lines were infected with lentivirus pLKO.1-shRNAs or pLKO.1-control with puromycin selection marker. Infected cells were selected with 1 μg/mL of puromycin for 72 hours and the selected cells were seeded in 12-well or 24-well plates. Cell medium was changed every three days with appropriate drug doses for 14 days or until control wells became confluent. Colonies were washed twice with PBS and fixed with 10% methanol and 10% acetic acid in distilled water. Fixed colonies were stained with 0.005% crystal violet. Integrated density was measured using NIH ImageJ software.

[3] = test system: ARID1A-mutated TOV21G tumors; experiment: intrabursal orthotopic xenograft, ARID1A-mutated TOV21G; assay type: in vivo, mice
From the text: Luciferase-expressing ARID1A-mutated TOV21G cells were orthotopically transplanted into the ovarian bursa sac of SCID/nude female mice. Tumors were allowed to establish for 14 days before randomized into two groups (n=6/group).
During treatment at indicated time interval mice were imaged based on luciferase expression to monitor tumor growth. Total flux (photons/sec) is graphed. *p=0.0313.
ARID1A-mutated TOV21G cells were orthotopically transplanted into the ovarian bursa sac of SCID/nude female mice. Tumors were allowed to establish for 2 weeks before the mice were randomized into two different treatment groups (n=5/group). […] After stopping the treatment, the mice from the indicated groups were followed for survival. Shown is the Kaplan-Meier survival curves for ACY1215 or vehicle control treated mice. The p-value was calculated by log-rank test.
The number of disseminated tumor nodules in peritoneal cavity was quantified.
Histological score (H-score) was calculated for 5 separate fields from 6 tumors from 6 individual mice from each of the indicated groups. Error bars represent S.E.M. The p-value was calculated via two-tailed t-test.
Immunofluorescence and immunohistochemical staining was performed as follows. Immunofluorescence was performed after 48 hours as indicated by fixing samples in 4% paraformaldehyde and permeabilizing with 0.5% Triton-X. Samples were incubated with primary antibodies for 2 hours at room temperature, highly cross absorbed secondary antibodies (Invitrogen) for 1 hour at room temperature and mounted with prolong anti-fade reagent (Invitrogen). Immuno-stained cells were imaged using a Leica Confocal microscope. […] Bitler et al. Nat. Med. 2015, 21, 231-238; Bitler et al. Cancer Research 2011, 71, 6184-6194. Expression of the stained markers was scored using a histologic score (H score) as previously described. McCarty, Jr. et al. Cancer research 1986, 46, 4244s-4248s.
The intrabursal orthotopic xenograft in vivo model was performed as described previously (Bitler et al. Nat. Med. 2015, 21, 231-238; Bitler et al. Cancer Research 2011, 71, 6184-6194). The protocols were approved by the Institutional Animal Care and Use Committee (IACUC). Briefly, 1×10^6 luciferase-expressing TOV-21G or RMG1 cells were unilaterally injected into the ovarian bursa sac of immunocompromised mice (n=6 per group). Two weeks after injection, tumors were visualized by injecting luciferin (intraperitoneal (i.p.): 4 mg/mice) resuspended in PBS and imaged with an In Vivo Imaging System (IVIS). […] Images were analyzed using Live Imaging 4.0 software. At end of the experiments, tumors were surgically dissected and tumor burden was calculated based on tumor weight. Intraperitoneally disseminated tumor nodules were quantified.
Seidel et al. Epigenomics 2015, 7, 103-118. […] Santo et al. Blood 2012, 119, 2579-2589. To determine the effects of HDAC6 inhibition in vivo on the growth of ARID1A-mutated tumors, luciferase-expressing ARID1A-mutated TOV21G cells were orthotopically transplanted into the bursa-sac covering the ovary of immunocompromised nude mice to mimic the tumor microenvironment. The injected ARID1A wild-type or mutant cells were allowed to grow for 2 weeks to establish the orthotopic tumors.

[4] = dissected ARID1A-mutated tumors

For O=C(CCCCCCNC(=O)c1cnc(N(c2ccccc2)c2ccccc2)nc1)NO [rocilinostat, 2-(diphenylamino)-N-(7-(hydroxyamino)-7-oxoheptyl)pyrimidine-5-carboxamide], the “expression of p53 target genes (BAX, PUMA, NOXA, CDKN1A)” value [1] was “not altered”, the “sensitivity of ARID1A-mutated cells compared with ARID1A wild-type cells” value [2] was “more sensitive” and the “growth of ARID1A-mutated tumors (luciferase total flux)” value ([3]; 50 mg/kg daily i.p., 21 days) was “significantly inhibited the growth”. For the same compound, the “number of tumor nodules in peritoneal cavity” value ([3]; 50 mg/kg daily, 3 weeks) was “significant decrease in the number of tumor nodules”, the “tumor burden (tumor weight)” value ([3]; 50 mg/kg daily, 3 weeks) was “significantly reduced the burden” and the “survival of mice bearing ARID1A-mutated tumors” value ([3]; 50 mg/kg daily, 3 weeks, followed after stopping treatment) was “significantly improved the survival”. The median survival ([3]; 50 mg/kg daily, 3 weeks, vehicle control 35 days, p=0.0023) was 51 days, the “HDAC6 expression (IHC)” value [3, 4] was “not affected” and the “apoptotic marker cleaved caspase 3 (IHC H-score)” value [3, 4] was “increased”. The “cell proliferation marker Ki67 (IHC H-score)” value [3, 4] was “significantly decreased” and the “p53K120Ac staining (IHC)” value [3, 4] was “significantly increased”.
